Reference: patent US11319299B2, “Substituted carboxamides as inhibitors of WDR5 protein-protein binding” (PROPELLON THERAPEUTICS INC., priority 2016, dated 2022)

target: WDR5 (Homo sapiens (Human), UniProt P61964); assay: Surface Plasmon Resonance (SPR) assay, KD and residence time; assay type: binding; settings: surface plasmon resonance (SPR) assay; read-out: WDR5 binding affinity (KD)

Row | SMILES | Kd [nM]
1 | C[C@@H]1CN(c2cc(F)c(C3=CCN(Cc4cnn(C)c4)CC3)cc2NC(=O)c2c[nH]c(=O)cc2C(F)(F)F)C[C@H](C)N1C [Example 164, N-[4-fluoro-5-[1-[(I-methylpyrazol-4-yl)methyl]-3,6-dihydro-2H-pyridin-4-yl]-2-[(3R,5S)-3,4,5-trimethylpiperazin-1-yl]phenyl]-6-oxo-4-(trifluoromethyl)-1H-pyridine-3-carboxamide] | 1.43
2 | C[C@@H]1CN(c2cc(F)c(C3=CCN(Cc4ccc(N5CCOCC5)cc4)CC3)cc2NC(=O)c2c[nH]c(=O)cc2C(F)(F)F)C[C@H](C)N1C [Example 165, N-[4-fluoro-5-[1-[(4-morpholin-4-ylphenyl)methyl]-3,6-dihydro-2H-pyridin-4-yl]-2-[(3R,5S)-3,4,5-trimethylpiperazin-1-yl]phenyl]-6-oxo-4-(trifluoromethyl)-1H-pyridine-3-carboxamide] | 6.28
3 | C[C@@H]1CN(c2cc(F)c(C3=CCN(Cc4ccc(N5CCN(C)CC5)cc4)CC3)cc2NC(=O)c2c[nH]c(=O)cc2C(F)(F)F)C[C@H](C)N1C [Example 166, N-[4-fluoro-5-[1-[[4-(4-methylpiperazin-1-yl)phenyl]methyl]-3,6-dihydro-2H-pyridin-4-yl]-2-[(3R,5S)-3,4,5-trimethylpiperazin-1-yl]phenyl]-6-oxo-4-(trifluoromethyl)-1H-pyridine-3-carboxamide] | 0.23
4 | C[C@@H]1CN(c2cc(F)c(C3=CCN(CC4CCOCC4)CC3)cc2NC(=O)c2c[nH]c(=O)cc2C(F)(F)F)C[C@H](C)N1C [Example 167, N-[4-fluoro-5-[1-(oxan-4-ylmethyl)-3,6-dihydro-2H-pyridin-4-yl]-2-[(3R,5S)-3,4,5-trimethylpiperazin-1-yl]phenyl]-6-oxo-4-(trifluoromethyl)-1H-pyridine-3-carboxamide] | 5.76
5 | CN(C)[C@@H]1CCN(c2cc(F)c(-c3cnc(N4CCOCC4)nc3)cc2NC(=O)c2cc(Cl)cc(Cl)c2)C1 [Example 168, 3,5-dichloro-N-[4-fluoro-5-(2-morpholin-4-ylpyrimidin-5-yl)-2-[(3R)-3-(dimethylamino)pyrrolidin-1-yl]phenyl]benzamide] | 30
6 | CN(C)[C@@H]1CCN(c2cc(F)c(-c3ccc(N4CCOCC4)cc3)cc2NC(=O)c2cc(Cl)cc(Cl)c2)C1 [Example 169, 3,5-dichloro-N-[4-fluoro-5-(4-morpholin-4-ylphenyl)-2-[(3R)-3-(dimethylamino)pyrrolidin-1-yl]phenyl]benzamide] | 122
7 | C[C@@H]1CN(c2cc(F)c(-c3cnc(N4CCOCC4)c(C#N)c3)cc2NC(=O)c2c[nH]c(=O)cc2C(F)(F)F)C[C@H](C)N1C [Example 170, N-[5-(5-cyano-6-morpholin-4-ylpyridin-3-yl)-4-fluoro-2-[(3R,5S)-3,4,5-trimethylpiperazin-1-yl]phenyl]-6-oxo-4-(trifluoromethyl)-1H-pyridine-3-carboxamide] | 1.17
8 | Cc1cc(-c2cc(NC(=O)c3c[nH]c(=O)cc3C(F)(F)F)c(N3C[C@@H](C)N(C)[C@@H](C)C3)cc2F)cnc1N1CCOCC1 [Example 171, N-[4-fluoro-5-(5-methyl-6-morpholin-4-ylpyridin-3-yl)-2-[(3R,5S)-3,4,5-trimethylpiperazin-1-yl]phenyl]-6-oxo-4-(trifluoromethyl)-1H-pyridine-3-carboxamide] | 2.5
9 | C[C@@H]1CN(c2cc(F)c(-c3cnc4c(c3)CCN4)cc2NC(=O)c2c[nH]c(=O)cc2C(F)(F)F)C[C@H](C)N1C [Example 172, N-[5-(2,3-dihydro-1H-pyrrolo[2,3-b]pyridin-5-yl)-4-fluoro-2-[(3R,5S)-3,4,5-trimethylpiperazin-1-yl]phenyl]-6-oxo-4-(trifluoromethyl)-1H-pyridine-3-carboxamide] | 10.3
10 | C[C@@H]1CN(c2cc(F)c(-c3cncc(C(F)(F)F)c3)cc2NC(=O)c2c[nH]c(=O)cc2C(F)(F)F)C[C@H](C)N1C [Example 173, N-[4-fluoro-2-[(3R,5S)-3,4,5-trimethylpiperazin-1-yl]-5-[5-(trifluoromethyl)pyridin-3-yl]phenyl]-6-oxo-4-(trifluoromethyl)-1H-pyridine-3-carboxamide] | 2.78
